Measured values: patent publication US5100462A, “Method of counteracting ethylene response by treating plants with diazocyclopentadiene and derivatives thereof” (North Carolina State University, priority 1991, dated 1992)

Legend:
Potted poinsettia = test: Protection of potted poinsettia from ethylene; format: in vivo, Euphorbia pulcherima; settings: volatile DACP
Procedure: Potted poinsettia (Euphorbia pulcherima) is treated with volatile DACP in the same manner as described above, and then exposed to ethylene to determine if the DACP would protect the poinsettia from the ethylene.

Carnation = test: Cut flower longevity, carnation; format: in vivo, Dianthus caryophyllus; settings: volatile DACP
[1] = system: ethylene binding site in mung bean sprouts; test: Ethylene binding (14C-ethylene) in mung bean sprouts, incl. Scatchard DACP-ethylene competition; set-up: species or system Vigna radiata L.; settings: for Binding (% of untreated control), Mung bean sprouts, Dark / Binding (% of untreated control), Mung bean sprouts, Light: measured 24 hours after exposure
Procedure: (§1) Plant material was exposed to ^14 C-ethylene in the presence or absence of unlabeled ethylene. Usually exposure was for two hours. After this time, material was aired for two minutes and placed in 250 or 500 ml jars containing mercury perchlorate in liquid scintillation vials which also contained fiberglass filter to increase the surface area for 24 hours. The vials were then removed, scintillation fluid added and the samples counted in a liquid scintillation counter. All measurements were corrected for unbound ethylene. When the number of binding sites inactivated by DACP in the light were desired, samples were aired 48 hours before measuring ethylene binding to allow the DACP not undergoing a light reaction to diffuse away.
(§2) Mung beans (Vigna radiata L.) were germinated in the dark for four days. At this point 10-12 sprouts were placed in 3 liter containers, and treated with DACP and ethylene as indicated in the individual Examples below. Ethylene was changed each day and seedlings were retreated with DACP at seven days. The height was measured at ten days. Light was 560 lux throughout the experiment after the four-day germination in the dark.
(§3) Experiments in the Examples below were carried out under normal laboratory fluorescent lights. The light intensity was 560 lux at the laboratory bench level. Normally treatment was inside 2.5 liter desiccators and the amount of light reaching the plant material was measured to average 448 lux or 80% of the incident light. When more light was needed, desiccators were moved to a position where the intensity was 2700 lux outside the desiccators. The amount of light reaching the plant material was measured to be 2160 lux.
(§4) Scatchard plots are used to determine the binding constants of compounds. An underlying assumption using this method is that the reaction is reversible. Using DACP in the light leads to an irreversible complex and the Scatchard plot is not valid. It can be made and compared with the competition in the dark to evaluate the relative effectiveness of the compound in the light versus dark. FIGS. 6 and 7 represent plots for tobacco leaves and mung bean sprouts in the light and in the dark. It can be seen from these two figures that there are apparently two classes of sites present in both tobacco leaves and mung bean sprouts. The values are much lower in the light which would be expected if the site is being permanently removed. A greater portion of the binding sites appears to be occupied in the competition experiments (FIGS. 6, 7) than in experiments in which added ethylene is not present (FIGS. 3, 4, 5).

[2] = system: ethylene binding site in tobacco leaves; test: Ethylene binding (14C-ethylene) in tobacco leaves, incl. Scatchard DACP-ethylene competition; set-up: species or system Nicotiana tabacum L.; settings: for Binding (% of untreated control), Tobacco leaves, Dark / Binding (% of untreated control), Tobacco leaves, Light: measured 48 hours after exposure
Procedure: as §1, §3
Tobacco leaves (Nicotiana tabacum L.) were grown in a greenhouse. Leaves were harvested when approximately 10 cm in length, the midrib removed and allowed to stand overnight for wound ethylene to subside. After incubating tobacco leaves with DACP for three hours under fluorescent lights at 448 lux of fluorescent light, some of the ethylene binding site present, as assayed by ^14 C-labeled ethylene disappears. As the concentration of DACP increases, the amount of binding site remaining decreases. The curve (FIG. 1) appears to be biphasic with a decrease of 80% of binding between 0 and 40 μl/l at DACP. Addition of an additional 80 μl/l of DACP reduced binding further 10%. […] In all previous cases, compounds diffused from the binding site with a half life of three to six hours.
as §4

beans = test: Ethylene-induced leaf abscission in beans; format: in vivo, Phaseolus vulgaris; settings: DACP vapor
mung bean seedlings = test: Growth inhibition of mung bean seedlings by ethylene; format: in vivo, Vigna radiata L.
Procedure: as §2, with “Light was 560 lux throughout the experiment after the four-day germination in the dark.” left out

Tomato fruit = test: Tomato ripening (red/green reflectance ratio); format: in vivo, Lycopersicon esculentum, Mill; settings: 25° C.
Procedure: Plant Material. Tomatoes (Lycopersicon esculentum, Mill) were obtained from a wholesale distributor.
Chemicals. DACP was prepared as previously described and kept as a 4-8% solution in hexane. Treatment was in a 3 l container. DACP was pipetted as a hexane solution onto paper towel to facilitate evaporation. After sealing, the containers were kept in darkness or exposed to 448 lux of fluorescent light for 24 hours. After 24 hours, containers were aired out for 24 hours. Those containers kept in darkness were aired in darkness. Subsequently the ethylene treatment was started and all samples were kept in 448 lux of fluorescent light. The gas phase was changed each day.
Ripening. Ripening was measured with an Agtron reflectance spectrophotometer (Magnson Engineers, Inc., Instruments Division, San Jose, Calif.) which measures the ratio of red/green light reflected from the tomato.

Cut purple petunias = test: Cut flower longevity, petunias; format: in vivo, Petunia hydrida; settings: volatile DACP
Procedure: Cut purple petunias (Petunia hydrida) are treated with volatile DACP in the same manner as described above.

ethylene binding = settings: Plant Growth Reg. 9, 157-164 (1990); cited from earlier work
[3] = DARK, DACP 120 ul/l + 10 μl/l E
[4] = DARK, DACP 120 ul/l as a gas, no ethylene
[5] = LIGHT, DACP 120 ul/l + 10 μl/l E
[6] = LIGHT, DACP 120 ul/l + 100 μl/l E
[7] = LIGHT, DACP 120 ul/l as a gas, no ethylene

[N-]=[N+]=C1C=CC=C1 [Diazocyclopentadiene]
signs of injury from DACP (Potted poinsettia): No signs of injury | death of the flowers (cyanthum) in response to ethylene (Potted poinsettia; then exposed to ethylene): died in response to the ethylene in the controls but not on the DACP treated plants | longevity of the flower (Carnation): likewise found to increase | time in which most of the light reaction has occurred ([1]; 448 lux, presaturated site (FIG. 3)): ≤ 30 min | Binding (% of untreated control), Mung bean sprouts, Dark [1]: 100 % of untreated control | Binding (% of untreated control), Mung bean sprouts, Light [1]: 24 % of untreated control | time in which most of the decrease in binding occurs (diffusion to the binding site) ([1]; after release as a liquid (FIG. 3)): ≤ 15 min | time for 1/2 of the binding site to be regenerated ([1]; in darkness, 245 μl/l (gas) DACP (FIG. 2B)): about two | Binding (% of untreated control), Tobacco leaves, Dark [2]: 100 % of untreated control | Binding (% of untreated control), Tobacco leaves, Light [2]: 27 % of untreated control | further reduction of binding ([2]; additional 80 μl/l of DACP, three hours at 448 lux (FIG. 1), 180 min): 10% | decrease of binding ([2]; between 0 and 40 μl/l DACP, three hours at 448 lux fluorescent light (FIG. 1), 180 min): 80% | half life of reappearance of the binding site after DACP is removed ([2]; in the dark, 245 μl/l (gas) DACP (FIG. 2A)): about 15 hours | binding site after incubation with DACP ([2]; incubated in darkness, 245 μl/l (gas) DACP (FIG. 2A)): most of the binding site disappears | reappearance of the binding site after DACP is removed ([2]; leaves preincubated in the light before removing the DACP (FIG. 2A)): does not reappear or if it does it does so only very slowly over many days | amount of binding site after 24 additional hours ([2]; same leaves re-assayed without retreating with DACP): appears to remain constant | amount of binding site inactivated, prebound DACP versus DACP present during the light treatment ([2]; two hours DACP in the dark, aired one hour, then light): No difference | ethylene-induced leaf abscission (beans): found to prevent ethylene-induced leaf abscission | % of Control (mung bean seedlings; [3]): 16 % of Control | Height (cm) (mung bean seedlings; [3]): 1.5 cm | % of Control (mung bean seedlings; [4]): 94 % of Control | Height (cm) (mung bean seedlings; [4]): 9.0 cm | % of Control (mung bean seedlings; [5]): 80 % of Control | Height (cm) (mung bean seedlings; [5]): 7.6 cm | % of Control (mung bean seedlings; [6]): 53 % of Control | Height (cm) (mung bean seedlings; [6]): 5.0 cm | Height (cm) (mung bean seedlings; LIGHT, DACP 120 ul/l + 1000 μl/l E): 2.3 cm | % of Control (mung bean seedlings; LIGHT, DACP 120 ul/l + 1000 μl/l E, 14400 min): 3.6 % of Control | % of Control (mung bean seedlings; [7]): 93 % of Control | Height (cm) (mung bean seedlings; [7]): 8.9 cm | time by which all of the tomatoes were nearly ripe (Tomato fruit; DACP in the light): ≤ 25 days | ratio of red to green (Tomato fruit; single exposure in the light, whether or not 1000 μl/l of ethylene was present (FIG. 8)): remained constant for ten days | effect on ripening (Tomato fruit; DACP applied in the dark): only a small effect | time to ripe as indicated by the red/green ratio (Tomato fruit; DACP applied in the dark): ripe in ten days | longevity of the flower (Cut purple petunias): found to increase

C=C [Ethylene]
Binding (% of untreated control), Mung bean sprouts, Dark [1]: 100 % of untreated control | Binding (% of untreated control), Mung bean sprouts, Light [1]: 100 % of untreated control | Binding (% of untreated control), Tobacco leaves, Dark [2]: 100 % of untreated control | Binding (% of untreated control), Tobacco leaves, Light [2]: 100 % of untreated control | % of Control (mung bean seedlings; DARK, 10 μl/l E): 16 % of Control | Height (cm) (mung bean seedlings; DARK, 10 μl/l E): 1.5 cm | % of Control (mung bean seedlings; LIGHT, 10 μl/l E): 16 % of Control | Height (cm) (mung bean seedlings; LIGHT, 10 μl/l E): 1.5 cm | % of Control (mung bean seedlings; LIGHT, 1000 μl/l E): 16 % of Control | Height (cm) (mung bean seedlings; LIGHT, 1000 μl/l E): 1.5 cm | 1/2 maximum of ethylene for growth inhibition (Lineweaver-Burk plot) (mung bean seedlings; after exposure to DACP): 50 μl/l

C1=CCC=C1 [cyclopentadiene]
blocking of ethylene binding (ethylene binding): effective blocking agent for ethylene binding
